Results as given in US20100179172A1, “N-PHENYL-METHANAMINE DERIVATIVE AND PESTICIDE CONTAINING IT” (priority 2007, published 2010).

System: Larval ticks (Haemaphysalis longicornis)
Experiment: Test on controlling effects against Haemaphysalis longicornis (Petri dish contact, knock down time, Test Example 7)
Format: in vivo
Conditions: 1 ml in Petri dish, 25° C.
Description: On an inner surface of a Petri dish having a diameter of 9 cm, 1 ml of a solution of the compound No. 40 in acetone (concentration: 10 μg/ml, 1 μg/ml or 0.1 μg/ml) was dropped by a micro pipette. After the inner surface of the Petri dish was dried, 100 Larval ticks (Haemaphysalis longicornis) were put, and the Petri dish was covered with a polyethylene sheet and sealed by a rubber band. Thereafter, the Petri dish was left to stand still at a constant temperature of 25° C. under a relative humidity of 100% under a constant dark condition except for the time of observation. Observation was carried out every time upon expiration of a certain time (i.e. after 5, 10, 20, 30, 60, 120, 180 and 240 minutes), and the number of ticks knocked down after contact with the compound was counted. As a control group, Larval ticks were put in a Petri dish having 1 ml of acetone dropwise added and observed in the same manner. The above operation was repeated twice.
From the number of knocked down ticks in each observation, the survival rate was obtained, and a corrected mortality was calculated by the following Abbott correction formula. Then, probit-time linear line was drawn, and the median knock down time (KT50 value) was obtained.
Corrected mortality (%)=[(Survival rate in control group−Survival rate in treated group)/Survival rate in control group]×100

SMILES: Cc1ncccc1CN(Cc1ccccn1)c1cc(C(F)(F)F)c(Br)c(C(F)(F)F)c1 [compound 40]
- KT50 value, Average (0.1 μg/ml): 38 min
- KT50 value, First time (0.1 μg/ml): 40 min
- KT50 value, Second time (0.1 μg/ml): 35 min
- KT50 value, Average (1 μg/ml): 50 min
- KT50 value, First time (1 μg/ml): 50 min
- KT50 value, Second time (1 μg/ml): 50 min
- KT50 value, Average (10 μg/ml): 40 min
- KT50 value, First time (10 μg/ml): 40 min
- KT50 value, Second time (10 μg/ml): 40 min
